Assay results reported in the supplement of paper PMC10132981, “Formate overflow drives toxic folate trapping in MTHFD1 inhibited cancer cells” (Nature Metabolism, 2023).

How the values were obtained:
[1] = system: PA-TU-8988T; assay: EC50 for viability (resazurin, 96 h); conditions: DMEM+GlutaMAX (5% dFBS, 1% P/S)
[2] = system: SW620 MTHFD2-/-; assay: cell viability relative to vehicle (resazurin, 96 h); higher = more viable; conditions: base medium: RPMI + dialysed FBS
Experimental: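 SW620 WT or MTHFD2-/- cells were treated for 96 h with a compound dilution series (log10 M) in RPMI with normal or dialysed FBS. Viability was read by resazurin and is given as % of vehicle.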

[3] = system: HCT116; assay: cell viability relative to lowest-dose well (resazurin, 96 h); higher = more viable; conditions: RPMI + 10% FBS
Outline: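 Viability values are expressed as percent of the lowest-dose well, using independent replicate cultures. HCT116 cells at 500 cells/well or SW620 cells at 1,000 cells/well were plated in 384-well plates in 50 µl RPMI containing 10% FBS and a metabolite supplement, then given compound dilution series dispensed from 10 mM DMSO stocks. After 96 h at 37 °C and 5% CO2, resazurin (10 µg ml^−1) conversion to resorufin was read by fluorescence at 595 nm after 5 h.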

Nc1nc(N)c(CC(=O)Nc2cnc(C(=O)N[C@@H](CCC(=O)O)C(=O)O)c(F)c2)c(=O)[nH]1 [TH9619]
Conditions	EC50 for viability [nM]
[1], metabolite supplement: Thymidine	29.5

CN(Cc1cnc2nc(N)nc(N)c2n1)c1ccc(C(=O)N[C@@H](CCC(=O)O)C(=O)O)cc1 [methotrexate]
Conditions	EC50 for viability [nM]	cell viability [%]
[1], metabolite supplement: Hypoxanthine	237	–
[1], metabolite supplement: Sodium Formate	85.5	–
[1], metabolite supplement: Thymidine	50	–
[2], log10 compound concentration (M): -6, supplement / serum: 50 μM Hypoxanthine	–	6.45
[2], log10 compound concentration (M): -6, supplement / serum: 50 μM Thymidine	–	6.68
[2], log10 compound concentration (M): -6, supplement / serum: 50 μM Thymidine + 50 μM Hypoxanthine	–	111
[2], log10 compound concentration (M): -6, supplement / serum: Hypoxanthine	–	6.76
[2], log10 compound concentration (M): -6, supplement / serum: Hypoxanthine+Sodium Formate	–	6.18
[2], log10 compound concentration (M): -6, supplement / serum: Hypoxanthine+Sodium Formate+Thymidine	–	93.3
[2], log10 compound concentration (M): -6, supplement / serum: No metabolite	–	7.7
[2], log10 compound concentration (M): -6, supplement / serum: Sodium Formate	–	7.05
[2], log10 compound concentration (M): -6, supplement / serum: Vehicle	–	7.38
[2], log10 compound concentration (M): -6.47712, supplement / serum: 50 μM Hypoxanthine	–	6.99
[2], log10 compound concentration (M): -6.47712, supplement / serum: 50 μM Thymidine	–	7.63
[2], log10 compound concentration (M): -6.47712, supplement / serum: 50 μM Thymidine + 50 μM Hypoxanthine	–	115
[2], log10 compound concentration (M): -6.47712, supplement / serum: Hypoxanthine	–	7.12
[2], log10 compound concentration (M): -6.47712, supplement / serum: Hypoxanthine+Sodium Formate	–	6.79
[2], log10 compound concentration (M): -6.47712, supplement / serum: Hypoxanthine+Sodium Formate+Thymidine	–	112
[2], log10 compound concentration (M): -6.47712, supplement / serum: No metabolite	–	7.99
[2], log10 compound concentration (M): -6.47712, supplement / serum: Sodium Formate	–	7.19
[2], log10 compound concentration (M): -6.47712, supplement / serum: Vehicle	–	7.78
[2], log10 compound concentration (M): -6.95424, supplement / serum: 50 μM Hypoxanthine	–	7.25
[2], log10 compound concentration (M): -6.95424, supplement / serum: 50 μM Thymidine	–	7.71
[2], log10 compound concentration (M): -6.95424, supplement / serum: 50 μM Thymidine + 50 μM Hypoxanthine	–	111
[2], log10 compound concentration (M): -6.95424, supplement / serum: Hypoxanthine	–	7.47
[2], log10 compound concentration (M): -6.95424, supplement / serum: Hypoxanthine+Sodium Formate	–	7.62
[2], log10 compound concentration (M): -6.95424, supplement / serum: Hypoxanthine+Sodium Formate+Thymidine	–	107
[2], log10 compound concentration (M): -6.95424, supplement / serum: No metabolite	–	8.02
[2], log10 compound concentration (M): -6.95424, supplement / serum: Sodium Formate	–	7.59
[2], log10 compound concentration (M): -6.95424, supplement / serum: Vehicle	–	7.71
[2], log10 compound concentration (M): -7.43136, supplement / serum: 50 μM Hypoxanthine	–	14.5
[2], log10 compound concentration (M): -7.43136, supplement / serum: 50 μM Thymidine	–	7.18
[2], log10 compound concentration (M): -7.43136, supplement / serum: 50 μM Thymidine + 50 μM Hypoxanthine	–	95.6
[2], log10 compound concentration (M): -7.43136, supplement / serum: Hypoxanthine	–	11.5
[2], log10 compound concentration (M): -7.43136, supplement / serum: Hypoxanthine+Sodium Formate	–	11.1
[2], log10 compound concentration (M): -7.43136, supplement / serum: Hypoxanthine+Sodium Formate+Thymidine	–	98.6
[2], log10 compound concentration (M): -7.43136, supplement / serum: No metabolite	–	7.722
[2], log10 compound concentration (M): -7.43136, supplement / serum: Sodium Formate	–	7.53
[2], log10 compound concentration (M): -7.43136, supplement / serum: Vehicle	–	7.22
[2], log10 compound concentration (M): -7.90849, supplement / serum: 50 μM Hypoxanthine	–	70.7
[2], log10 compound concentration (M): -7.90849, supplement / serum: 50 μM Thymidine	–	12.3
[2], log10 compound concentration (M): -7.90849, supplement / serum: 50 μM Thymidine + 50 μM Hypoxanthine	–	106
[2], log10 compound concentration (M): -7.90849, supplement / serum: Hypoxanthine	–	54.5
[2], log10 compound concentration (M): -7.90849, supplement / serum: Hypoxanthine+Sodium Formate	–	55.4
[2], log10 compound concentration (M): -7.90849, supplement / serum: Hypoxanthine+Sodium Formate+Thymidine	–	102
[2], log10 compound concentration (M): -7.90849, supplement / serum: No metabolite	–	10.5
[2], log10 compound concentration (M): -7.90849, supplement / serum: Sodium Formate	–	11.5
[2], log10 compound concentration (M): -7.90849, supplement / serum: Vehicle	–	8.29
[2], log10 compound concentration (M): -8.38561, supplement / serum: 50 μM Hypoxanthine	–	76.3
[2], log10 compound concentration (M): -8.38561, supplement / serum: 50 μM Thymidine	–	14.7
[2], log10 compound concentration (M): -8.38561, supplement / serum: 50 μM Thymidine + 50 μM Hypoxanthine	–	102
[2], log10 compound concentration (M): -8.38561, supplement / serum: Hypoxanthine	–	74.7
[2], log10 compound concentration (M): -8.38561, supplement / serum: Hypoxanthine+Sodium Formate	–	79.4
[2], log10 compound concentration (M): -8.38561, supplement / serum: Hypoxanthine+Sodium Formate+Thymidine	–	84.7
[2], log10 compound concentration (M): -8.38561, supplement / serum: No metabolite	–	9.121
[2], log10 compound concentration (M): -8.38561, supplement / serum: Sodium Formate	–	33.1
[2], log10 compound concentration (M): -8.38561, supplement / serum: Vehicle	–	15.5
[2], log10 compound concentration (M): -8.86273, supplement / serum: 50 μM Hypoxanthine	–	92.6
[2], log10 compound concentration (M): -8.86273, supplement / serum: 50 μM Thymidine	–	66.7
[2], log10 compound concentration (M): -8.86273, supplement / serum: 50 μM Thymidine + 50 μM Hypoxanthine	–	109
[2], log10 compound concentration (M): -8.86273, supplement / serum: Hypoxanthine	–	92.5
[2], log10 compound concentration (M): -8.86273, supplement / serum: Hypoxanthine+Sodium Formate	–	97.5
[2], log10 compound concentration (M): -8.86273, supplement / serum: Hypoxanthine+Sodium Formate+Thymidine	–	91.4
[2], log10 compound concentration (M): -8.86273, supplement / serum: No metabolite	–	47.4
[2], log10 compound concentration (M): -8.86273, supplement / serum: Sodium Formate	–	72.7
[2], log10 compound concentration (M): -8.86273, supplement / serum: Vehicle	–	45.5
[2], log10 compound concentration (M): -9.33985, supplement / serum: 50 μM Hypoxanthine	–	100
[2], log10 compound concentration (M): -9.33985, supplement / serum: 50 μM Thymidine	–	87.7
[2], log10 compound concentration (M): -9.33985, supplement / serum: 50 μM Thymidine + 50 μM Hypoxanthine	–	102
[2], log10 compound concentration (M): -9.33985, supplement / serum: Hypoxanthine	–	92.7
[2], log10 compound concentration (M): -9.33985, supplement / serum: Hypoxanthine+Sodium Formate	–	96.4
[2], log10 compound concentration (M): -9.33985, supplement / serum: Hypoxanthine+Sodium Formate+Thymidine	–	98.6
[2], log10 compound concentration (M): -9.33985, supplement / serum: No metabolite	–	82.1
[2], log10 compound concentration (M): -9.33985, supplement / serum: Sodium Formate	–	101
[2], log10 compound concentration (M): -9.33985, supplement / serum: Vehicle	–	80.1
[2], log10 compound concentration (M): -9.81697, supplement / serum: 50 μM Hypoxanthine	–	95.3
[2], log10 compound concentration (M): -9.81697, supplement / serum: 50 μM Thymidine	–	109.8
[2], log10 compound concentration (M): -9.81697, supplement / serum: 50 μM Thymidine + 50 μM Hypoxanthine	–	104
[2], log10 compound concentration (M): -9.81697, supplement / serum: Hypoxanthine	–	102
[2], log10 compound concentration (M): -9.81697, supplement / serum: Hypoxanthine+Sodium Formate	–	100
[2], log10 compound concentration (M): -9.81697, supplement / serum: Hypoxanthine+Sodium Formate+Thymidine	–	98.5
[2], log10 compound concentration (M): -9.81697, supplement / serum: No metabolite	–	97.9
[2], log10 compound concentration (M): -9.81697, supplement / serum: Sodium Formate	–	97.9
[2], log10 compound concentration (M): -9.81697, supplement / serum: Vehicle	–	94.8
[2], log10 compound concentration (M): -10.2941, supplement / serum: 50 μM Hypoxanthine	–	105
[2], log10 compound concentration (M): -10.2941, supplement / serum: 50 μM Thymidine	–	93.5
[2], log10 compound concentration (M): -10.2941, supplement / serum: 50 μM Thymidine + 50 μM Hypoxanthine	–	103
[2], log10 compound concentration (M): -10.2941, supplement / serum: Hypoxanthine	–	91
[2], log10 compound concentration (M): -10.2941, supplement / serum: Hypoxanthine+Sodium Formate	–	96.2
[2], log10 compound concentration (M): -10.2941, supplement / serum: Hypoxanthine+Sodium Formate+Thymidine	–	100
[2], log10 compound concentration (M): -10.2941, supplement / serum: No metabolite	–	94.6
[2], log10 compound concentration (M): -10.2941, supplement / serum: Sodium Formate	–	95.9
[2], log10 compound concentration (M): -10.2941, supplement / serum: Vehicle	–	87.6
[2], log10 compound concentration (M): -10.7712, supplement / serum: 50 μM Hypoxanthine	–	88.2
[2], log10 compound concentration (M): -10.7712, supplement / serum: 50 μM Thymidine	–	96.2
[2], log10 compound concentration (M): -10.7712, supplement / serum: 50 μM Thymidine + 50 μM Hypoxanthine	–	110
[2], log10 compound concentration (M): -10.7712, supplement / serum: Hypoxanthine	–	98.1
[2], log10 compound concentration (M): -10.7712, supplement / serum: Hypoxanthine+Sodium Formate	–	92.28
[2], log10 compound concentration (M): -10.7712, supplement / serum: Hypoxanthine+Sodium Formate+Thymidine	–	103
[2], log10 compound concentration (M): -10.7712, supplement / serum: No metabolite	–	111
[2], log10 compound concentration (M): -10.7712, supplement / serum: Sodium Formate	–	95
[2], log10 compound concentration (M): -10.7712, supplement / serum: Vehicle	–	95.6

cell viability [%], [3]
Conditions	0.001 µM	0.00278 µM	0.00774 µM	0.0215 µM	0.0599 µM	0.167 µM	0.464 µM	1.29 µM	3.59 µM	10 µM
metabolite supplement: 50uM thymidine	96.3	96.8	91.8	36.4	31.6	31.9	31.5	31.6	31.3	31.5
metabolite supplement: 50uM thymidine + 250uM hypoxanthine	98.1	101	101	104	107	109	107	106	105	98.1
metabolite supplement: 250uM hypoxanthine	97.7	97.5	99.5	43.6	18.9	16.9	16.7	16.5	16	15.3
metabolite supplement: vehicle	99.2	96.37	66	31.4	19.1	17.6	16.8	16.4	16.2	16.4
